Results: US11103526B2, “Methods for treatment using small molecule potassium-sparing diuretics and natriuretics” (University of Pittsburgh—Of the Commonwealth System of …, priority 2016, dated 2021)

Assays:
anesthetized rats [1] = test: Protocol 3: intrarenal artery infusion, ipsilateral versus contralateral kidney (Example 13); format: in vivo, male Sprague-Dawley rats; settings: for MABP / renal blood flow (RBF) / urinary excretion of glucose, ipsilateral versus contralateral kidney / urinary excretion of potassium, ipsilateral versus contralateral kidney / urinary excretion of sodium, ipsilateral versus contralateral kidney / urine volume, ipsilateral versus contralateral kidney: intrarenal artery infusion 0.1, 0.3 and 1 μmoles/kg/min; for urinary excretion of glucose, ipsilateral versus contralateral kidney / urinary excretion of potassium, ipsilateral versus contralateral kidney / urinary excretion of sodium, ipsilateral versus contralateral kidney / urine volume, ipsilateral versus contralateral kidney: same time period
Description: Protocol 3. Rats were prepared similar to the Protocol 1 description, but with a few additions. For this protocol, PE-10 cannulas were inserted into both the left and right ureters for simultaneous urine collection from both kidneys. A 1 mm transit-time flow probe was also positioned on the left renal artery and connected to a flowmeter (model T-206, Transonic Systems, Inc., Ithaca, N.Y.) to continuously measure renal blood flow (RBF). As placing a flow probe on left renal artery partially denervates the kidney, both kidneys were denervated to ensure similar conditions for both kidneys. Finally, a 30-gauge needle was inserted into the lumen of the left renal artery, and an infusion of 0.9% saline at 50 μl/min was initiated.
After stabilization for one hour, urine was collected from both kidneys for 15 minutes (for urine volume, sodium, potassium, and glucose), and MABP as well as HR were time averaged during this period. In addition, RBF was recorded 5, 10, and 15 minutes into the 15-minute urine collection period and averaged. Next, the rats received an infusion into the left renal artery of 8-aminoguanine or 8-aminoguanosine at 0.1 μmoles/kg/min and 50 μl/min or of vehicle at 50 μl/min. After 10 minutes, urine was again collected for 15 minutes, and all measurements were repeated. In rats receiving 8-aminoguanine or 8-aminoguanosine, the dose of these compounds was increased to 0.3 μmoles/kg/min. After 10 minutes, urine was again collected for 15 minutes, and all measurements were repeated. The procedure was repeated once more after the dose of 8-aminoguanosine or 8-aminoguanine was increased to 1 μmole/kg/min. Sodium, potassium, and glucose were measured in all urine samples as described in Protocol 1.
Increasing doses (0, 0.1, 0.3, and 1.0 μmoles/kg/min) of 8-aminoguanosine and 8-aminoguanine were infused into the left renal artery of anesthetized rats, while MABP and RBF were monitored. The urine volume and urinary excretion of sodium, potassium, and glucose were also measured from both the infused (treated; ipsilateral) and non-infused (within animal control; contralateral) kidneys. A control group was also included with the vehicle alone infused into the left kidney.

anesthetized rats [2] = test: Acute cardiovascular and renal effects of an intravenous bolus in anesthetized rats (Example 1); format: in vivo, male Sprague-Dawley rats; settings: 33.5 μmoles/kg intravenous bolus; for urine volume increase: Period 3 (85-115 min) compared with Period 1 (0-30 min); for glucose excretion increase / potassium excretion decrease / sodium excretion increase: Period 3 compared with Period 1
Description: Animals. This study employed male Sprague-Dawley rats (Charles River; Wilmington, Mass.) that were approximately 16 weeks old. The Institutional Animal Care and Use Committee approved all procedures.
The rats were anesthetized with Inactin (90 mg/kg, i.p.) and placed on an isothermal pad, and body temperature was monitored with a rectal probe thermometer and maintained at 37° C. with a heat lamp. […] A PE-50 cannula was inserted into the jugular vein, and an infusion of 0.9% saline at 25 μl/min was initiated. A PE-10 tubing was placed in the left ureter for urine collection. […] The dose was selected based on preliminary experiments with 8-aminoguanosine. […] Each group of rats (n of at least 6) received only one treatment. Ten minutes after the test agents were administered, urine was collected for another 30 minutes (Period 2: […] into the protocol).
Statistics. Absolute values are presented as the mean±SEM. Fold-increases were calculated as follows: Period 3 value÷Period 1 value. Statistical analyses were performed using analysis of variance (ANOVA) followed by Fisher's Least Significant Difference (LSD) test if the overall effects or interactions in the ANOVA were significant. P<0.05 was considered statistically significant.

[3] = system: obese ZDSD (metabolic syndrome); test: Glycated hemoglobin (HbA1C) in obese ZDSD at end of diabetogenic diet; format: in vivo, Zucker Diabetic Sprague Dawley rats; settings: chronic treatment 10 mg/kg/day
From the text: This example describes the long-term effects of 8-aminoguanine on (FIG. 18) on glycated hemoglobin (HbA1C) levels in blood from rats with the metabolic syndrome (i.e., obese ZDSD) at the end of a diabetogenic diet. Obese ZDSD are a recently developed model (developed by PreClinOmics) of metabolic syndrome that have a mild elevation of MABP and have dyslipidemia, diabetes, and obesity.

[4] = system: Dahl salt-sensitive rats (Dahl SS); test: Long-term MABP in Dahl salt-sensitive rats; format: in vivo; settings: 10 mg/kg/day in drinking water; 8% NaCl diet
From the text: This example describes the long-term effects of 8-aminoguanine (FIG. 11A) and 8-aminoguanosine (FIG. 11B) on mean arterial blood pressure (MABP) in Dahl salt-sensitive rats (Dahl SS). Dahl SS are a well-established model of salt-sensitive hypertension. All animals were instrumented for long-term measurement of MABP by radiotelemetry as previously described (Jackson E K et al., Hypertension, 65:238-249, 2015). Group 1 Dahl SS received only normal drinking water, whereas Group 2 received normal drinking water for 7 days and then were provided drinking water containing either 8-aminoguanine or 8-aminoguanosine (10 mg/kg/day) for the remainder of the study. The experiment was divided into two phases (indicated by the boxes). During phase 1, all rats received a low-salt (0.3% NaCl) diet. During phase 2, all animals received a high-salt (8% NaCl) diet. The study was continued until all animals expired, so the sample size decreases with time. The blood pressures of the 8-aminoguanine- and 8-aminoguanosine-treated rats were obtainable for a longer period of time because they survived longer. […] Therefore, any stroke and survival benefit for 8-aminoguanosine cannot be attributed to changes in MABP. Why 8-aminoguaine, but not 8-aminoguanosine, lowers MABP in Dahl SS on a high-salt diet is currently unknown, but may be due to different pharmacokinetics of the compounds in this rat strain.

Compound | MABP (anesthetized rats [1]) | renal blood flow (RBF) (anesthetized rats [1]) | urinary excretion of glucose, ipsilateral versus contralateral kidney (anesthetized rats [1]) | urinary excretion of potassium, ipsilateral versus contralateral kidney (anesthetized rats [1]) | urinary excretion of sodium, ipsilateral versus contralateral kidney (anesthetized rats [1]) | urine volume, ipsilateral versus contralateral kidney (anesthetized rats [1]) | urine, sodium, and glucose excretion by the contralateral kidney (anesthetized rats [1]; intrarenal artery infusion at 1 μmole/kg/min, compared with the basal level) | excretion of urine, sodium, or glucose by the contralateral kidney (anesthetized rats [1]; intrarenal artery infusion at 0.1 and 0.3 μmoles/kg/min) | effect on heart rate (HR) (anesthetized rats [2]) | effect on mean arterial blood pressure (MABP) (anesthetized rats [2]) | effect on mesenteric blood flow (MBF) (anesthetized rats [2]) | effect on renal blood flow (RBF) (anesthetized rats [2]) | urine volume increase (anesthetized rats [2]) [fold] | glucose excretion increase (anesthetized rats [2]) [fold] | potassium excretion decrease (anesthetized rats [2]) [%] | sodium excretion increase (anesthetized rats [2]) [fold] | glycated hemoglobin (HbA1C) levels in blood [3] | MABP in Dahl SS on a high-salt diet [4]
Nc1nc2[nH]c(N)nc2c(=O)[nH]1 [8-aminoguanine, 8-Aminoguanine] | did not affect | did not affect | significantly higher | did not differ significantly | significantly higher | significantly higher | slightly increased | no effect | did not affect | did not affect | did not affect | did not affect | 3.6 | 12.2 | 71.0 | 17.2 | dramatic anti-diabetic effect | decreases MABP
Nc1nc2c(nc(N)n2[C@@H]2O[C@H](CO)[C@@H](O)[C@H]2O)c(=O)[nH]1 [8-aminoguanosine, 8-Aminoguanosine] | did not affect | did not affect | no significant differences | significantly lower | no significant differences | no significant differences | – | – | did not affect | did not affect | modestly increased | decreased | 4.2 | 12.1 | 69.1 | 26.6 | significantly lowered | did not alter MABP
